The values below come from patent publication US20030153548A1, “Histamine-3 receptor ligands for diabetic conditions” (priority 2002, published 2003).

For assay [1], the system named is C57BL-6J mice fed a high-fat diet. Briefly: Insulin tolerance test in mice fed a high-fat diet. The assay is classed as in vivo. To be noted: FIG. 1. The method, then: Assessment of the ability of H3 receptor antagonists to ameliorate symptoms of diabetes has been determined in several ways. In the first instance, effects of an H3 antagonist on the insulin tolerance test in mice fed a high-fat diet were determined. C57BL-6J mice (aged 5-6 weeks) were obtained from Jackson Labs (Bar Harbor, Me., U.S.A.) and individually housed at Abbott facilities under conditions of 12 h lights on, 12 h lights off (on at 22:00), with food and water available ad libitum. […] Nine days prior to drug treatment, postprandial blood glucose was determined via a Medisense-G glucometer (Abbott Laboratories, Medisense Division, Bedford, Mass., U.S.A.). […] On day 21, animals were fasted for 3 hours and fasting blood glucose determined in a blood sample obtained by tail snip. Insulin tolerance was determined by administering insulin (Lilly Humulin-R, 0.25 U/kg, i.p., obtained from Eli Lilly and Company, Indianapolis, Ind., U.S.A.) with blood glucose measured at 30, 60, 90 and 120 minutes using the glucometer. […] The 4′-{3-[(3R)-3-(dimethylamino)pyrrolidinyl]propoxy} [1,1′-biphenyl]-4-carbonitrile compound was administered p.o. at doses of 0.5, 5, and 15 mg/kg b.i.d., and dexfenfluramine at a dose of 10 mg/kg p.o., b.i.d. Data were analyzed using GraphPad InStat® (San Diego, Calif., U.S.A.) software using a one-way ANOVA software followed by Dunnett's post hoc test.

Assay [2] has the same test system. Put plainly: Serum triglyceride levels in mice fed a high-fat diet. The assay is classed as in vivo. The settings on record: FIG. 2.

Each structure is given as a SMILES string.

Turning to `CN(C)[C@@H]1CCN(CCCOc2ccc(-c3ccc(C#N)cc3)cc2)C1` [Compound A, 4′-{3-[(3R)-3-(dimethylamino)pyrrolidinyl]propoxy}[1,1′-biphenyl]-4-carbonitrile], the “insulin tolerance test (blood glucose after insulin)” value in assay [1] (15 mg/kg p.o. twice daily) is on record as “completely normalized”; in assay [1] (0.5, 5 and 15 mg/kg p.o. b.i.d., day 21, insulin 0.25 U/kg i.p.), “dose-dependent improvement”.
For `CN(C)C1CCN(CCCOc2c(F)cc(-c3ccc(C#N)cc3)cc2F)C1` (centres unmarked) [Compound B], the triglyceride levels entry in assay [2] (10 mg/kg p.o. b.i.d., after 13 days) is on record as “reduced to the same level as those seen in low-fat diet fed mice”; in assay [2] (1, 3 and 10 mg/kg p.o. b.i.d., postprandial blood after 13 days), “clear, dose-dependent decrease”.
For the compound `CC(C)CC(N(C)C)C1(c2ccc(Cl)cc2)CCC1` (centres unmarked) [sibutramine, reference compound], in assay [2] (5 mg/kg p.o. b.i.d., after 13 days), the “triglyceride levels (effects as of Compound B)” value was “not seen”.
